Molecular target: DNMT1 (Homo sapiens, UniProt P26358)
Test: biolayer interferometry (Octet K2), His-tagged DNMT1 on NTA biosensor
Type: binding

Sequence of DNMT1 (P26358 whole entry): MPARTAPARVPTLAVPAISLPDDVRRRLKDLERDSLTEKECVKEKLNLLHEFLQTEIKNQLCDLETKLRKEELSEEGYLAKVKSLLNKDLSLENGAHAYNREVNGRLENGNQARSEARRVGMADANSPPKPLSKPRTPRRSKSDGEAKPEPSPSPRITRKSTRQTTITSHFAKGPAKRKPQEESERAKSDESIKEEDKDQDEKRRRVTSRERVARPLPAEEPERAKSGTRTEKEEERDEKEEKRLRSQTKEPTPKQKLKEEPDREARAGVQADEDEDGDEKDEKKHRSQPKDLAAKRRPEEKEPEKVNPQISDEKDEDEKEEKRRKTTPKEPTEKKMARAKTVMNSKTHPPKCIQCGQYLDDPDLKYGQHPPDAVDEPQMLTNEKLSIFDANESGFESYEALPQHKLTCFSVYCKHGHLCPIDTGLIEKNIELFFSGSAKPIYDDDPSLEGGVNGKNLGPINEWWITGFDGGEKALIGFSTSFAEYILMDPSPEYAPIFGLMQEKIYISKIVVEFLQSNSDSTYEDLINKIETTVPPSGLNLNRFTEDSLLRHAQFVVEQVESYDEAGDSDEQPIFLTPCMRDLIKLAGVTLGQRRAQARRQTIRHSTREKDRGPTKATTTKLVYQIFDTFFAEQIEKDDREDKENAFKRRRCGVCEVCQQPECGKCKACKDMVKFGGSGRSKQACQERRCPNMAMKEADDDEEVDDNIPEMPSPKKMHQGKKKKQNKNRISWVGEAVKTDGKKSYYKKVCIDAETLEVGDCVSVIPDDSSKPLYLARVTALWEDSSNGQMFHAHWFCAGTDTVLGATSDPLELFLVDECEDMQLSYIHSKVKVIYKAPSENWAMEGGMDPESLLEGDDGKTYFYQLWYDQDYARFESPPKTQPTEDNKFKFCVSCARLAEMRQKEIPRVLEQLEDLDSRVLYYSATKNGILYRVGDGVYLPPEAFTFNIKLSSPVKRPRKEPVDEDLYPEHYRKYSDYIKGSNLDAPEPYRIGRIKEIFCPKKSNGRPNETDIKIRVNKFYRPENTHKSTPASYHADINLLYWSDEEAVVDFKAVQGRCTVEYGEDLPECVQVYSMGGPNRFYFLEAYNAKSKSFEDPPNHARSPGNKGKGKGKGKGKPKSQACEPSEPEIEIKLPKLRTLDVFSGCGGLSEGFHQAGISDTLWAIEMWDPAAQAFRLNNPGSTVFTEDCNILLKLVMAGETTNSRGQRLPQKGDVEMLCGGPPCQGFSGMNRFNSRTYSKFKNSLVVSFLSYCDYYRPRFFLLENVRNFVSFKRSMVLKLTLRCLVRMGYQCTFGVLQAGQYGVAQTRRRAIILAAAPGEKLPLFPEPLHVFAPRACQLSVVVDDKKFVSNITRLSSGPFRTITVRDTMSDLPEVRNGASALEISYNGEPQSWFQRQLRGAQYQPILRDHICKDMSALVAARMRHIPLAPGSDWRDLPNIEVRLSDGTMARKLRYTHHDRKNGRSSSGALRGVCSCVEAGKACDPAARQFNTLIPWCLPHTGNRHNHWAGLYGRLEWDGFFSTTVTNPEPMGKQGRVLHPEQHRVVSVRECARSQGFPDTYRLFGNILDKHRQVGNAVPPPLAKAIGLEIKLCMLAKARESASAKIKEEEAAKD

Cc1cccc2c(NCc3ccc(C(=O)Nc4ccccc4N)cc3)c3ccccc3nc12 [8a, N-(2-aminophenyl)-4-(((4-methylacridin-9-yl)amino)methyl) benzamide]
Kd: 1.9 nM
